Patent US11944665B2, “Methods and compositions for modulating lymphatic vessels in the central nervous system” (University of Virginia Patent Foundation, priority 2016, dated 2024)

How the values were obtained:
[1] = system: meningeal lymphatic vessels; assay: Visudyne ablation then repeated Aβ42 injection into CSF, meningeal aggregates (Example 8); type: in vivo, C57BL/6 mice; details: Aβ42 2.5 μg every 24 h into CSF for 5 days, from 72 h after ablation, vs vehicle
Description: C57BL/6 adult mice were anesthetized and injected ICM with visudyne to induce meningeal lymphatic vessel ablation, or vehicle as a control. After the photoconversion step, mice were allowed to recover for 72 h. Then, catheters were implanted in the cisterna magna of all mice and 2.5 μg of Aβ42 were injected every 24 h into the CSF for a total of 5 days. […] Results are presented as mean±s.e.m.; n=5 per group; *P<0.05, **P<0.01, one-tailed Mann-Whitney test.

[2] = system: APPSwe transgenic mice; assay: Visudyne ablation in APPSwe mice, Morris water maze (Example 10); type: in vivo; details: APPSwe mice 6-7 months-old, ablation every 2 weeks for 1 month, vs vehicle
Text: Adult (6-7 months-old) APPSwe transgenic mice were anesthetized, injected with visudyne (ICM), or vehicle as a control, and submitted to a step of transcranial photoconversion, every 2 weeks for a total of 1 month. […] Results are presented as mean±s.e.m.; n=9 per group; *P<0.05, two-way ANOVA—Repeated Measures, with Bonferroni post hoc test.

[3] = system: meningeal lymphatic vessels; assay: Visudyne meningeal lymphatic ablation, Aβ42 drainage and efflux (Example 1); type: in vivo, C57BL/6 mice; details: vs vehicle
Description: Visudyne (verteporfin) or vehicle (as control) were injected into the cisterna magna (intra-cisterna magna, ICM) of anesthetized adult C57BL/6 mice (3 months of age), followed by a photoconversion step that was achieved by shining a non-thermal red light (689 nm) in 5 points above the skull. 7 days after the initial procedure, Aβ42-HiLyte647 (1 μg) was stereotaxically injected (coordinates from bregma, AP=+1.5 mm, ML=−1.5 mm, DV=+2.5 mm) into the brain parenchyma. 1 h post injection, mice were transcardially perfused with saline and meninges, deep cervical lymph nodes (dcLNs) and brain were collected for analysis. Meningeal whole-mounts (scale bar, 1 mm) from vehicle (FIG. 23A) or visudyne (FIG. 23B) injected groups were stained for lymphatic vessel, endothelial hyaluronan receptor 1 (LYVE-1, green) and the blood vascular endothelial cell marker CD31 (red). Visudye alone is shown in the inset in the upper right corner of FIGS. 23A and 23B. […] Aβ42 alone is shown in the inset in the upper right corner of each of FIGS. 23E and 23F, and LYVE-1 alone is shown in the inset in the lower right corner of each of FIGS. 23E and 23F. Coronal brain sections (100 μm thick), both rostral and caudal to the injection site, were stained for glial fibrillary acidic protein (GFAP). […] Results are presented as mean±s.e.m. in FIGS. 23C, D, and G; n=6 in vehicle group and n=5 in visudyne group; *P<0.05. **P<0.01, one-tailed Mann-Whitney test; representative of 2 independent experiments).

[4] = system: meningeal lymphatic vessels; assay: EAE (MOG35-55) after Visudyne meningeal lymphatic ablation; type: in vivo, C57b16 mice
Description: FIG. 22 is a graph showing ablation of the meningeal lymphatic decreases EAE score. Adult C57b16 mice were injected ICV (cisterna magna) or intranasally with Visudyne that was then photoconverted (Meningeal ablation) or not (Control). On the same day, EAE was induced by injected MOG 35-55 emulsion subcutaneously. At day 17 mice were scored prior to sacrifice (brain, meninges, and spinal cord were harvested for IHC to measure the amount of demyelination and the infiltrate).
EAE clinical symptom development in laser. Visudyne (i.n.)+laser and Visudyne (i.c.m.)+laser treated mice. (mean±s.e.m. n=12-41 mice/group pooled from 3 independent experiments, ****p<0.0001, repeated measures 2 way ANOVA with Tukey's multiple comparisons test) is shown in FIG. 51A. Incidence of EAE development (day mice reach a score of 1 or above) in laser, Visudyne (i.n.)+laser and Visudyne (i.c.m.)+laser treated mice. Representative dot plots of CD4 and CD8 T cells in the spinal cord of laser and Visudyne (i.c.m.)+laser mice during late onset EAE (D17) are shown in FIG. 51C. Quantification of the number of CD4 T cells in the spinal cord of laser and Visudyne (i.c.m.)+laser treated mice at D17 post immunization. (mean±s.e.m. n=4/5 mice per group, representative of 2 independent experiments, **p=0.005, unpaired t test) is shown in FIG. 51D. […] Accordingly, it is contemplated that ablation of lymphatic vessels in accordance with some embodiments herein can ameliorate symptoms and disease development of MS, for which EAE (MOG) is a model.

[5] = system: 5xFAD (APPSweFILon,PSEN1*M146L*L286V) transgenic mice; assay: Visudyne ablation in 5xFAD mice, amyloid pathology (Example 9); type: in vivo; details: ablation every 3 weeks for 1.5 months
Text: Meningeal lymphatic ablation in 1.5 months-old 5xFAD (APPSweFILon,PSEN1*M146L*L286V) transgenic mice was achieved by ICM injection of visudyne, or vehicle as a control, followed by a step of transcranial photoconversion. This procedure was repeated every 3 weeks, for a total of 1.5 months. Meninges of 5xFAD mice from the different groups were stained with DAPI and for LYVE-1 and Aβ. Aβ aggregates were detected in the meninges of 5xFAD mice that undergone lymphatic ablation by visudyne, but not in the meninges of vehicle-injected mice. Aβ aggregates formed specially around the sinuses and in the cerebellar meninges. Hippocampus was stained for DAPI and Amyloid-beta in vehicle or visudyne-injected 5xFAD mice (scale bar, 1 mm, inset, 200 μm). […] Results are presented as mean±s.e.m.; n=5 per group: *P<0.05, one-tailed Mann-Whitney test.

[6] = system: meningeal lymphatic vessels; assay: Photoablation of meningeal lymphatic vessels, multiphoton 690 nm laser through thin skull (FIG. 18); type: in vivo, mice; details: 2 μl i.c.v., two hours after the ablation
Description: FIGS. 18A-D are a series of microscope images and graphs showing photoablation of meningeal lymphatic vessels. […] (cisterna magna) with 2 μl of Visudyne, which was activated using 690 nm laser of multiphoton microscope through thin skull. Two hours after the ablation, the meninges were collected and stained for lymphatic endothelial cell (Lyve-1) and blood vessels (laminin).

Substance: verteporfin [Visudyne]
- area occupied by Aβ aggregates in meningeal whole-mounts [1]: significant increase in aggregates
- MWM probe and reversal [2]: No differences
- latency to find the platform, 4th day of the acquisition phase of the MWM [2]: Significant differences
- drainage of Aβ42 in dcLNs ([3]; 1 h after Aβ42-HiLyte647 (1 μg) injection into brain parenchyma, 7 days post ablation): significantly less drainage
- efflux of Aβ42 from the brain (area fraction occupied by the fluorescent peptide) ([3]; 1 h after Aβ42-HiLyte647 injection, 7 days post ablation): decreased efflux
- area of LYVE-1+ vessels (meningeal whole-mounts) ([3]; visudyne ICM + photoconversion 689 nm, adult mice, 7 days after): significant decrease
- coverage by CD31+ vessels (meningeal whole-mounts) ([3]; visudyne ICM + photoconversion, 7 days after): no changes
- EAE disease development ([4]; Visudyne (i.c.m.)+laser vs laser and Visudyne (i.n.)+laser): ameliorate disease development
- MOG-specific T cell activation in the deep cervical lymph nodes ([4]; Visudyne (i.c.m.)+laser vs laser, EAE): ameliorates MOG-specific T cell activation
- EAE score / disease severity ([4]; Visudyne ICV (cisterna magna) or intranasal, photoconverted vs not, scored day 17): decreases disease severity
- Aβ aggregates in the meninges ([5]; not in vehicle-injected mice): detected
- amyloid plaque coverage in the hippocampus ([5]; vs vehicle): statistically significant increase
- amyloid plaque number in the hippocampus ([5]; vs vehicle): statistically significant increase
- amyloid plaque size in the hippocampus ([5]; vs vehicle): trend for increased plaque size
- effect on the blood vessels (laminin) [6]: No effect on the blood vessels was observed
- lymphatic vessels at the area of ablation (superior sagittal sinus) [6]: Disruption of lymphatic vessels is evident
- lymphatic vessels in transverse sinuses [6]: trend to disruption
